Measured values as given in patent US20110312961A1, “2,5-Disubstituted Morpholine Orexin REceptor Antagonists” (priority 2008, published 2011).

Assays:
[1] = biological target: T1, human native ganglion-type nicotinic receptors (likely α3β4) (Homo sapiens, UniProt P30926+P32297); test: [3H]epibatidine binding, SH-SY5Y membranes; settings: read-out: Human ganglionic (SH-SY5Y), Ki
T1 construct: human native ganglion-type nicotinic receptors (likely α3β4); endogenous in cells; host or cells: SH-SY5Y

[2] = biological target: T2, human recombinant α4β4 nicotinic receptors (Homo sapiens, UniProt P30926+P43681); test: [3H]epibatidine binding, SH-EP1 membranes
T2 construct: expressed in transfected cells; host or cells: SH-EP1

[3] = system: db/db mouse; test: Murine model of type 2 diabetes mellitus (db/db); assay type: in vivo
Description: The db/db mouse, a well established model of type 2 diabetes mellitus, is a leptin-deficient mutant that expresses an obese phenotype and also commonly expresses metabolic symptoms including hyperglycemia, hyperlipidemia and hyperinsulinemia (Halaas et al., 1995 and Lee et al., 1996). This experimental animal model of diabetes was employed in a study designed to determine the effects of (2S,3R)—N-2-((3-pyridinyl)methyl)-1-azabicyclo[2.2.2]oct-3-yl)-3,5-difluorobenzamide on body mass and several additional metabolic parameters.
In this study, (2S,3R)—N-2-((3-pyridinyl)methyl)-1-azabicyclo[2.2.2]oct-3-yl)-3,5-difluorobenzamide was repeatedly administered orally (via gavage) at 1.0 mg/kg once daily starting from the age of approximately 3 weeks and continuing throughout the 7-week study. Nondiabetic heterozygote littermate mice (db/+; designated “Db”) were used as controls. Body weight and food intake were determined twice weekly. The α7 antagonist methyllycaconitine (MLA) was also given concurrently via gavage at 3 mg/kg daily to selected cohorts of db/db (designated “db”) or db/+mice. At the end of the 7-week dosing regimen, total growth rates (overall body weight gain) and average daily food intake were calculated. In addition, glucose levels were assessed in mice fasted overnight. Furthermore, blood sample analytes from mice fasted overnight were collected for measurements of tumor necrosis factor-a (TNF-α), triglycerides and glycosylated hemoglobin (HbA1c). All data are expressed as mean±SEM. For each parameter investigated, differences among all groups were compared by one-way ANOVA with post-hoc Neuman-Keuls multiple comparison test.

T1 sequence (P32297 32-505): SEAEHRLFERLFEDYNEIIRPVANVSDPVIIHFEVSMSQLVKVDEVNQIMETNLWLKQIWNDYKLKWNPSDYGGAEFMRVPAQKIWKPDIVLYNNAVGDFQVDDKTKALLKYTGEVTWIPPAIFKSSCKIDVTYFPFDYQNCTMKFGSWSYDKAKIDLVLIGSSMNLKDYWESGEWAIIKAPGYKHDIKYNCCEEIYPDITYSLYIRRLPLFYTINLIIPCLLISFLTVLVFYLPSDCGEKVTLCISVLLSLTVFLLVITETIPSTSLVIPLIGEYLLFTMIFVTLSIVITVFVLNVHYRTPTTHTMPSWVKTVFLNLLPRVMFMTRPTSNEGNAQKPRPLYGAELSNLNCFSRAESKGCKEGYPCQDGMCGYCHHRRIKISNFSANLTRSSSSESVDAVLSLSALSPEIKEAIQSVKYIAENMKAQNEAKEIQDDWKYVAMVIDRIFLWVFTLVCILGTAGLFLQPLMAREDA
T1 sequence (P30926 22-498): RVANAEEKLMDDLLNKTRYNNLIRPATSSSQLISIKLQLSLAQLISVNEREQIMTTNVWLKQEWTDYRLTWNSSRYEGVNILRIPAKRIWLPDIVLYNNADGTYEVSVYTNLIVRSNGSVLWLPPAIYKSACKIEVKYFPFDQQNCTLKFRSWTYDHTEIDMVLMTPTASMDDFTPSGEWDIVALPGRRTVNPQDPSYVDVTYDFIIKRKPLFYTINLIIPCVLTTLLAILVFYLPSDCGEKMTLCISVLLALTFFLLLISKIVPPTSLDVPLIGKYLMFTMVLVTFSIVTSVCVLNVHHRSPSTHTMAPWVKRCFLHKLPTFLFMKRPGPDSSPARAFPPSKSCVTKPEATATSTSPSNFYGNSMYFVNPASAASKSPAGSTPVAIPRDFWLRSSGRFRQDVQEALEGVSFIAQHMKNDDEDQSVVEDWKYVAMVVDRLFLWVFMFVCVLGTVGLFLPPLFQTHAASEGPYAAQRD
T2 sequence (P43681 29-627 limits assumed): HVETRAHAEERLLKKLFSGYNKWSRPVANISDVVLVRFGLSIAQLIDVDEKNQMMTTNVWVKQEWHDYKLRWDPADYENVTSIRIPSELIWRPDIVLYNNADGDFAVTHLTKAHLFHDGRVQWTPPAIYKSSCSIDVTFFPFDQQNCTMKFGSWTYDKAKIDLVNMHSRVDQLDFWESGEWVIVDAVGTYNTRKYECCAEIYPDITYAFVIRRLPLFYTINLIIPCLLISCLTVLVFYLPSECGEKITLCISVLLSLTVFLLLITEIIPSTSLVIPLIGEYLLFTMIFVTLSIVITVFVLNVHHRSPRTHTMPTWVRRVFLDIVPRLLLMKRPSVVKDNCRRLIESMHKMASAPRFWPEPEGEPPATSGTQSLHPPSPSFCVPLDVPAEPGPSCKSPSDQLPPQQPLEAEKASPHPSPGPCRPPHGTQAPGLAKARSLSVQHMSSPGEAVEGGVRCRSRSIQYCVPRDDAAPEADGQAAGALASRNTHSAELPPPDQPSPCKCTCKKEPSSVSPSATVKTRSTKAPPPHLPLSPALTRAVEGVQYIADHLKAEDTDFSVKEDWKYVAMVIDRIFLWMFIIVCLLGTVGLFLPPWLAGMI
T2 sequence (P30926 22-498): as the sequence (P30926 22-498) above

## O=C(N[C@@H]1C2CCN(CC2)[C@H]1Cc1cccnc1)c1cc(F)cc(F)c1 [Compound A]
[1]
  Ki: 48 µM
[2]
  Ki: 19 µM
[3]; lean (db/+) mice, 1.0 mg/kg oral daily, FIG. 16
  food consumption: unaffected
[3]; obese db/db mice, 1.0 mg/kg oral daily, 7 weeks, FIG. 15
  total body weight gain: significantly lower
[3]; obese db/db mice, 1.0 mg/kg oral daily, 7 weeks, vs obese controls, FIG. 16
  average food consumption: significantly lower
[3]; obese db/db mice, 1.0 mg/kg oral once daily, 7 weeks, vs vehicle-treated obese db/db
  all parameters measured: significant decrease in all parameters measured
[3]; obese mice, 1.0 mg/kg oral daily, 7 weeks, FIG. 17
  fasting plasma glucose levels: significantly inhibited
[3]; obese mice, 1.0 mg/kg oral daily, 7 weeks, FIG. 18
  glycosylated HbA1c levels: significantly inhibited
[3]; obese mice, 1.0 mg/kg oral daily, 7 weeks, FIG. 19
  pro-inflammatory cytokine TNF alpha: significantly reduced
[3]; obese mice, 1.0 mg/kg oral daily, 7 weeks, vs vehicle-treated controls, FIG. 20
  triglyceride levels: significantly lower
